Test results as given in US11395857B2, “Radiolabeled melanocortin 1 receptor-specific alpha-melanocyte-stimulating hormone analogues for imaging or therapy” (PROVINCIAL HEALTH SERVICES AUTHORITY, priority 2018, dated 2022).
Where two headings read alike, the source gives them in different places.

How the values were obtained:
[1] = Biodistribution of 68Ga-labeled peptide in mice bearing B16F10 mouse melanoma; format: in vivo, C57BL/6J mice; details: iv, total radioactivity; for tissue uptake at 2 h: 2 h p.i. unblocked
Procedure: The B16-F10 melanoma cell line (Mus musculus) used in the tumor model was obtained commercially from ATTC (CRL-6475). Cells were cultured in Dulbecco's Modified Eagle's Medium (DMEM, StemCell Technologies) supplemented by 10% FBS, 100 U/mL penicillin and 100 μg/mL streptomycin at 37° C. in a humidified incubator containing 5% CO2. Cells grown to roughly 90% confluence were washed with sterile phosphate-buffered saline (lx PBS, pH 7.4), followed by trypsinization. For tumour implantation, C57BL/6J mice were anesthetized by inhalation with 2% isoflurane in 2.0 L/min of oxygen, 2×10^6 B16-F10 cells were inoculated subcutaneously on right dorsal flank. Mice were imaged or used in biodistribution studies once the tumour reached 6-8 mm in diameter.
Similar to PET/CT imaging, tumour-bearing mice were injected with 1-2 MBq of ^68Ga-labeled CCZ01099 via tail vein under anesthesia with or without co-injection of 0.5 mg of MC1R-specific inhibitor BMS 470539. At 1 or 2 h p.i., the mice were anesthetized again, and euthanized by CO2 inhalation. Blood was promptly withdrawn, and the organs of interest were harvested, rinsed with 1×PBS (pH 7.4), and blotted dry. Each organ was then weighed and the radioactivity of the collected tissue was measured using a Wallac WIZARD2 gamma counter (Perkin Elmer), normalized to the injected dose using a standard curve and expressed as the percentage of the injected dose per gram of tissue (% ID/g). Table 3 summarizes the biodistribution data of ^68Ga-labeled CCZ01099 at 1 and 2 h p.i., as well as 1 h p.i. with co-injection of 0.5 mg of MC1R-specific inhibitor BMS 470539. Minimal background tissue radioactivity accumulation was observed, except for kidney, which is expected as the radiolabeled peptides were cleared through the renal pathway.

B16-F10 tumours = assay: PET/CT imaging of B16-F10 tumour-bearing mice; format: in vivo, C57BL/6J mice
Procedure: PET imaging experiments were conducted using a preclinical micro PET/CT scanner (Siemens inveon). For static PET scan, each tumour bearing mouse was injected with 4-6 MBq of ^68Ga-labeled CCZ01099 via tail vein under anesthesia. After the injection, mice were allowed to recover and roam freely in their cages. At 1 or 2 h p.i., the mice were sedated again with 2% isoflurane inhalation and positioned in the scanner, and kept warm by a heating pad. A 10 min baseline CT scan using 60 kV X-rays at 500 μA was obtained for localization and attenuation correction after segmentation for reconstructing the PET images. A single 12 min static PET scan was acquired following the CT scan. The mice were euthanized using CO2 inhalation after imaging.

CCCC[C@H](NC(=O)CN1CCC(NC(=O)CN2CCN(CC(=O)O)CCN(CC(=O)O)CCN(CC(=O)O)CC2)CC1)C(=O)N[C@H]1CC(=O)NCCCC[C@@H](C(N)=O)N(C)C(=O)[C@H](Cc2c[nH]c3ccccc23)N(C)C(=O)[C@H](CCCNC(=N)N)N(C)C(=O)[C@@H](Cc2ccccc2)NC(=O)[C@H](Cc2c[nH]cn2)N(C)C1=O [^68Ga-labeled CCZ01099, metal not drawn]
tissue uptake at 1 h ([1]; B16F10 tumour, 1 h p.i. unblocked, C57BL/6J mice, B16F10 melanoma, read-out: Biodistribution, B16F10 tumour): 6.12 ± 1.43 %ID/g | tissue uptake at 2 h ([1]; B16F10 tumour, C57BL/6J mice, B16F10 melanoma, read-out: Biodistribution, B16F10 tumour): 5.22 ± 1.3 %ID/g | tissue uptake at 1 h ([1]; C57BL/6J, B16F10 tumour, with BMS 470539 (MC1R-specific inhibitor), 0.5 mg co-injected, 1 h p.i. blocked, co-injection of 0.5 mg BMS 470539, read-out: Biodistribution, B16F10 tumour): 0.6 ± 0.15 %ID/g | tissue uptake at 1 h ([1]; C57BL/6J, adrenal glands, with BMS 470539 (MC1R-specific inhibitor), 0.5 mg co-injected, 1 h p.i. blocked, co-injection of 0.5 mg BMS 470539, read-out: Biodistribution, Adrenal glands): 0.45 ± 0.29 %ID/g | tissue uptake at 1 h ([1]; C57BL/6J, bone, with BMS 470539 (MC1R-specific inhibitor), 0.5 mg co-injected, 1 h p.i. blocked, co-injection of 0.5 mg BMS 470539, read-out: Biodistribution, Bone): 0.17 ± 0.1 %ID/g | tissue uptake at 1 h ([1]; C57BL/6J, brain, with BMS 470539 (MC1R-specific inhibitor), 0.5 mg co-injected, 1 h p.i. blocked, co-injection of 0.5 mg BMS 470539, read-out: Biodistribution, Brain): 0.03 ± 0.02 %ID/g | tissue uptake at 1 h ([1]; C57BL/6J, fat, with BMS 470539 (MC1R-specific inhibitor), 0.5 mg co-injected, 1 h p.i. blocked, co-injection of 0.5 mg BMS 470539, read-out: Biodistribution, Fat): 0.04 ± 0.02 %ID/g | tissue uptake at 1 h ([1]; C57BL/6J, heart, with BMS 470539 (MC1R-specific inhibitor), 0.5 mg co-injected, 1 h p.i. blocked, co-injection of 0.5 mg BMS 470539, read-out: Biodistribution, Heart): 0.13 ± 0.02 %ID/g | tissue uptake at 1 h ([1]; C57BL/6J, intestine, with BMS 470539 (MC1R-specific inhibitor), 0.5 mg co-injected, 1 h p.i. blocked, co-injection of 0.5 mg BMS 470539, read-out: Biodistribution, Intestine): 0.17 ± 0.05 %ID/g | tissue uptake at 1 h ([1]; C57BL/6J, kidneys, with BMS 470539 (MC1R-specific inhibitor), 0.5 mg co-injected, 1 h p.i. blocked, co-injection of 0.5 mg BMS 470539, read-out: Biodistribution, Kidneys): 2.62 ± 0.91 %ID/g | tissue uptake at 1 h ([1]; C57BL/6J, liver, with BMS 470539 (MC1R-specific inhibitor), 0.5 mg co-injected, 1 h p.i. blocked, co-injection of 0.5 mg BMS 470539, read-out: Biodistribution, Liver): 0.38 ± 0.11 %ID/g | tissue uptake at 1 h ([1]; C57BL/6J, lungs, with BMS 470539 (MC1R-specific inhibitor), 0.5 mg co-injected, 1 h p.i. blocked, co-injection of 0.5 mg BMS 470539, read-out: Biodistribution, Lungs): 0.34 ± 0.13 %ID/g | tissue uptake at 1 h ([1]; C57BL/6J, muscle, with BMS 470539 (MC1R-specific inhibitor), 0.5 mg co-injected, 1 h p.i. blocked, co-injection of 0.5 mg BMS 470539, read-out: Biodistribution, Muscle): 0.08 ± 0.03 %ID/g | tissue uptake at 1 h ([1]; C57BL/6J, pancreas, with BMS 470539 (MC1R-specific inhibitor), 0.5 mg co-injected, 1 h p.i. blocked, co-injection of 0.5 mg BMS 470539, read-out: Biodistribution, Pancreas): 0.08 ± 0.01 %ID/g | tissue uptake at 1 h ([1]; C57BL/6J, seminal glands, with BMS 470539 (MC1R-specific inhibitor), 0.5 mg co-injected, 1 h p.i. blocked, co-injection of 0.5 mg BMS 470539, read-out: Biodistribution, Seminal glands): 0.07 ± 0.03 %ID/g | tissue uptake at 1 h ([1]; C57BL/6J, spleen, with BMS 470539 (MC1R-specific inhibitor), 0.5 mg co-injected, 1 h p.i. blocked, co-injection of 0.5 mg BMS 470539, read-out: Biodistribution, Spleen): 0.52 ± 0.28 %ID/g | tissue uptake at 1 h ([1]; C57BL/6J, stomach, with BMS 470539 (MC1R-specific inhibitor), 0.5 mg co-injected, 1 h p.i. blocked, co-injection of 0.5 mg BMS 470539, read-out: Biodistribution, Stomach): 0.19 ± 0.12 %ID/g | tissue uptake at 1 h ([1]; C57BL/6J, testes, with BMS 470539 (MC1R-specific inhibitor), 0.5 mg co-injected, 1 h p.i. blocked, co-injection of 0.5 mg BMS 470539, read-out: Biodistribution, Testes): 0.1 ± 0.02 %ID/g | tissue uptake at 1 h ([1]; C57BL/6J, thyroid, with BMS 470539 (MC1R-specific inhibitor), 0.5 mg co-injected, 1 h p.i. blocked, co-injection of 0.5 mg BMS 470539, read-out: Biodistribution, Thyroid): 0.13 ± 0.05 %ID/g | tissue uptake at 1 h ([1]; C57BL/6J, whole blood, with BMS 470539 (MC1R-specific inhibitor), 0.5 mg co-injected, 1 h p.i. blocked, co-injection of 0.5 mg BMS 470539, read-out: Biodistribution, Blood): 0.27 ± 0.04 %ID/g | tissue uptake at 1 h ([1]; adrenal glands, 1 h p.i. unblocked, C57BL/6J mice, B16F10 melanoma, read-out: Biodistribution, Adrenal glands): 0.71 ± 0.67 %ID/g | tissue uptake at 2 h ([1]; adrenal glands, C57BL/6J mice, B16F10 melanoma, read-out: Biodistribution, Adrenal glands): 0.33 ± 0.19 %ID/g | tissue uptake at 1 h ([1]; bone, 1 h p.i. unblocked, C57BL/6J mice, B16F10 melanoma, read-out: Biodistribution, Bone): 0.32 ± 0.16 %ID/g | tissue uptake at 2 h ([1]; bone, C57BL/6J mice, B16F10 melanoma, read-out: Biodistribution, Bone): 0.1 ± 0.03 %ID/g | tissue uptake at 1 h ([1]; brain, 1 h p.i. unblocked, C57BL/6J mice, B16F10 melanoma, read-out: Biodistribution, Brain): 0.05 ± 0.04 %ID/g | tissue uptake at 2 h ([1]; brain, C57BL/6J mice, B16F10 melanoma, read-out: Biodistribution, Brain): 0.01 %ID/g | tissue uptake at 1 h ([1]; fat, 1 h p.i. unblocked, C57BL/6J mice, B16F10 melanoma, read-out: Biodistribution, Fat): 0.09 ± 0.04 %ID/g | tissue uptake at 2 h ([1]; fat, C57BL/6J mice, B16F10 melanoma, read-out: Biodistribution, Fat): 0.02 ± 0.01 %ID/g | tissue uptake at 1 h ([1]; heart, 1 h p.i. unblocked, C57BL/6J mice, B16F10 melanoma, read-out: Biodistribution, Heart): 0.26 ± 0.07 %ID/g | tissue uptake at 2 h ([1]; heart, C57BL/6J mice, B16F10 melanoma, read-out: Biodistribution, Heart): 0.08 ± 0.01 %ID/g | tissue uptake at 1 h ([1]; intestine, 1 h p.i. unblocked, C57BL/6J mice, B16F10 melanoma, read-out: Biodistribution, Intestine): 0.37 ± 0.11 %ID/g | tissue uptake at 2 h ([1]; intestine, C57BL/6J mice, B16F10 melanoma, read-out: Biodistribution, Intestine): 0.53 ± 0.38 %ID/g | tissue uptake at 1 h ([1]; kidneys, 1 h p.i. unblocked, C57BL/6J mice, B16F10 melanoma, read-out: Biodistribution, Kidneys): 5.98 ± 1.24 %ID/g | tissue uptake at 2 h ([1]; kidneys, C57BL/6J mice, B16F10 melanoma, read-out: Biodistribution, Kidneys): 4.42 ± 0.55 %ID/g | tissue uptake at 1 h ([1]; liver, 1 h p.i. unblocked, C57BL/6J mice, B16F10 melanoma, read-out: Biodistribution, Liver): 0.54 ± 0.07 %ID/g | tissue uptake at 2 h ([1]; liver, C57BL/6J mice, B16F10 melanoma, read-out: Biodistribution, Liver): 0.44 ± 0.08 %ID/g | tissue uptake at 1 h ([1]; lungs, 1 h p.i. unblocked, C57BL/6J mice, B16F10 melanoma, read-out: Biodistribution, Lungs): 0.74 ± 0.14 %ID/g | tissue uptake at 2 h ([1]; lungs, C57BL/6J mice, B16F10 melanoma, read-out: Biodistribution, Lungs): 0.31 ± 0.05 %ID/g | tissue uptake at 1 h ([1]; muscle, 1 h p.i. unblocked, C57BL/6J mice, B16F10 melanoma, read-out: Biodistribution, Muscle): 0.17 ± 0.05 %ID/g | tissue uptake at 2 h ([1]; muscle, C57BL/6J mice, B16F10 melanoma, read-out: Biodistribution, Muscle): 0.04 %ID/g | tissue uptake at 1 h ([1]; pancreas, 1 h p.i. unblocked, C57BL/6J mice, B16F10 melanoma, read-out: Biodistribution, Pancreas): 0.17 ± 0.04 %ID/g | tissue uptake at 2 h ([1]; pancreas, C57BL/6J mice, B16F10 melanoma, read-out: Biodistribution, Pancreas): 0.07 ± 0.01 %ID/g | tissue uptake at 1 h ([1]; seminal glands, 1 h p.i. unblocked, C57BL/6J mice, B16F10 melanoma, read-out: Biodistribution, Seminal glands): 0.11 ± 0.05 %ID/g | tissue uptake at 2 h ([1]; seminal glands, C57BL/6J mice, B16F10 melanoma, read-out: Biodistribution, Seminal glands): 0.04 ± 0.01 %ID/g | tissue uptake at 1 h ([1]; spleen, 1 h p.i. unblocked, C57BL/6J mice, B16F10 melanoma, read-out: Biodistribution, Spleen): 0.35 ± 0.07 %ID/g | tissue uptake at 2 h ([1]; spleen, C57BL/6J mice, B16F10 melanoma, read-out: Biodistribution, Spleen): 0.19 ± 0.03 %ID/g | tissue uptake at 1 h ([1]; stomach, 1 h p.i. unblocked, C57BL/6J mice, B16F10 melanoma, read-out: Biodistribution, Stomach): 0.26 ± 0.15 %ID/g | tissue uptake at 2 h ([1]; stomach, C57BL/6J mice, B16F10 melanoma, read-out: Biodistribution, Stomach): 0.2 ± 0.16 %ID/g | tissue uptake at 1 h ([1]; testes, 1 h p.i. unblocked, C57BL/6J mice, B16F10 melanoma, read-out: Biodistribution, Testes): 0.21 ± 0.06 %ID/g | tissue uptake at 2 h ([1]; testes, C57BL/6J mice, B16F10 melanoma, read-out: Biodistribution, Testes): 0.07 ± 0.01 %ID/g | tissue uptake at 1 h ([1]; thyroid, 1 h p.i. unblocked, C57BL/6J mice, B16F10 melanoma, read-out: Biodistribution, Thyroid): 0.31 ± 0.08 %ID/g | tissue uptake at 2 h ([1]; thyroid, C57BL/6J mice, B16F10 melanoma, read-out: Biodistribution, Thyroid): 0.16 ± 0.03 %ID/g | tissue uptake at 1 h ([1]; whole blood, 1 h p.i. unblocked, C57BL/6J mice, B16F10 melanoma, read-out: Biodistribution, Blood): 0.7 ± 0.15 %ID/g | tissue uptake at 2 h ([1]; whole blood, C57BL/6J mice, B16F10 melanoma, read-out: Biodistribution, Blood): 0.19 ± 0.01 %ID/g | Tumour visualization on PET images (B16-F10 tumours; 1 h and 2 h p.i.): Tumours were clearly visualized | Tumour uptake on PET with co-injection of MC1R-specific inhibitor BMS 470539 (B16-F10 tumours; 1 h p.i., 0.5 mg BMS 470539): tumour uptake was abolished
